Test results reported in patent US20250163043A1 (TRANSTHERA SCIENCES (NANJING), INC., priority 2021, published 2025).

Target: CDK9/CycT1 (Homo sapiens, UniProt P50750)
Assay: ADP-Glo kinase assay on CDK enzymatic activity, CDK9/CycT1
Type: biochemical
Conditions: 10 concentrations from 10 μM, 4-fold, 60 min room temperature
Description: Test samples: the compounds of the present invention, having structures shown above.
ADP-Glo Kinase Assay (ADP-Glo kinase kit), DMSO (dimethyl sulfoxide), CDK9/CycT1 (cyclin-dependent kinase 9/cyclin T1), CDK tide (cyclin-dependent kinase substrate peptide fragments), CDK1/CycE1 (cyclin-dependent kinase 1/cyclin E1), CDK2/CycA2 (cyclin-dependent kinase 2/cyclin A2), CDK3/CycE1 (cyclin-dependent kinase 3/cyclin E1), CDK4/CycD3 (cyclin-dependent kinase 4/cyclin D3), CDK5/p25NCK (cyclin-dependent kinase 5/p25), and AZD 4573.
A 384-well white plate, a 96-well plate, a microplate oscillator, a centrifuge, and a microplate reader.
The compounds were dissolved in DMSO and diluted 4-fold in the 96-well plate to obtain stock solutions with 10 concentration gradients, and added into a 384-well plate system to obtain a series of 10 concentration gradients of compound solutions with final concentrations of 10 μM starting and 4-fold gradient decreasing. 1 μM AZD4573 was used as compound positive control (PC) and 0.5% DMSO as solvent vehicle control (VC), ten duplicated wells each for PC and VC.
1 μL of compound solution and 2 μL of 2× kinase solution were transferred to each well, and the plate was centrifuged at 1000 g for 30 s and left at room temperature for 10 min. A mixture of 2× substrate and ATP was prepared in 1× kinase buffer. The reaction was started after adding 2 μL of substrate and ATP into the plate. The plate was centrifuged at 1000 g for 30 s. The assay plate was closed and left at room temperature for 60 min. The reaction system was added with 4 μL of ADP Glo reagent, centrifuged at 1000 rpm for 1 min, and incubated at room temperature for 40 min. The reaction system was added with 8 μL of kinase assay reagent, centrifuged at 1000 rpm for 1 min and incubated at room temperature for 40 min. The […] was read on Biotek.
The inhibition rate was calculated according to the following formula: […]
Lumcmpd: compound fluorescence reading; Lumpositive: average value of the fluorescence reading of positive compound control; Lumvehicle: average value of the fluorescence reading of solvent vehicle control.
IC50 values were fitted using GraphPad 7.0 based on inhibition rates of compounds at different concentrations.

Sequence of CDK9/CycT1 (P50750 whole entry): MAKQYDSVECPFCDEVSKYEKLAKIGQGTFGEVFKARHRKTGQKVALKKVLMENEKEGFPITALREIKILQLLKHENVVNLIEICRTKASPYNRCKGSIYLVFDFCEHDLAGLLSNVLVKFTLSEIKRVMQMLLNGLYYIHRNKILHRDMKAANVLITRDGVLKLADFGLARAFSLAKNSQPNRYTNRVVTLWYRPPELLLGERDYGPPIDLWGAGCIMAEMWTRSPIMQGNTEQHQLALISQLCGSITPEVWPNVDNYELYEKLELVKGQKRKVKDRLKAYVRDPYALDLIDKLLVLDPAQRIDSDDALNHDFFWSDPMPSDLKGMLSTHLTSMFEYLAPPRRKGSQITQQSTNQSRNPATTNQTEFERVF
Sequence of CDK9/CycT1 (O60563 whole entry partner): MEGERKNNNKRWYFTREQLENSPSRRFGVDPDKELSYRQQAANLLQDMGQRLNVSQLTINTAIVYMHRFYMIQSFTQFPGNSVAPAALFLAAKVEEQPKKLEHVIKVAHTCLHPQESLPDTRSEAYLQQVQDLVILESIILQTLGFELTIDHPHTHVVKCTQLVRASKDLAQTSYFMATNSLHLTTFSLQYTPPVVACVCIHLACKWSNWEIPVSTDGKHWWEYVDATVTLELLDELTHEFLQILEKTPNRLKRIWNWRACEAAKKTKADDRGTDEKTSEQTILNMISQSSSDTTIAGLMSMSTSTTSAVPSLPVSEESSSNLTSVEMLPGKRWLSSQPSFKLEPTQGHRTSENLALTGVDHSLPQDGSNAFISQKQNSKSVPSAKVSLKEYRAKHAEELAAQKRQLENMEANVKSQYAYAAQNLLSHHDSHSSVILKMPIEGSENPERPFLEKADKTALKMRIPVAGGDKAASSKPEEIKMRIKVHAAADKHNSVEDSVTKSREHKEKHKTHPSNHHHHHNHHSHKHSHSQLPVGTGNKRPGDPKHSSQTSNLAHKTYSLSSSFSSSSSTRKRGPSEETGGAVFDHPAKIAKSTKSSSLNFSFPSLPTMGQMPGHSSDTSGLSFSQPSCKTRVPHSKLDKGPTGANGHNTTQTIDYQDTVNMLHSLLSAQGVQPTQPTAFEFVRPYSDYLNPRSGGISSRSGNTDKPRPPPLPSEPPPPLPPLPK

Row | Structure (SMILES) | IC50 [nM]
1 | CC(C)Nc1nc(C(F)F)c(C#N)c2cnc(N[C@H]3CCCNC3)nc12 [Compound 111, (S)-6-(difluoromethyl)-8-(isopropylamino)-2-(piperidin-3-ylamino)pyrido[3,4-d]pyrimidine-5-carbonitrile] | 69
2 | CC(C)Nc1nc(C#N)cc2cnc(NC3CCS(=O)(=O)CC3)nc12 [Compound 120, 2-((1,1-dioxidotetrahydro-2H-thiopyran-4-yl)amino)-8-(isopropylamino)pyrido[3,4-d]pyrimidine-6-carbonitrile] | 32
3 | CC(C)Nc1nc(C#N)cc2cnc(N[C@@H]3CCNC3=O)nc12 [Compound 124, (R)-8-(isopropylamino)-2-((2-oxopyrrolidin-3-yl)amino)pyrido[3,4-d]pyrimidine-6-carbonitrile] | 26
4 | N#Cc1cc2cnc(N[C@H]3CCCNC3)cc2c(O[C@H]2CCOC2)n1 [Compound 155, 7-(((S)-piperidin-3-yl)amino)-1-(((S)-tetrahydrofuran-3-yl)oxy)-2,6-naphthyridine-3-carbonitrile] | 33
5 | CC(C)Nc1nc(C#N)cc2cnc(N[C@H]3CCCC[C@@H]3O)cc12 [Compound 156, 7-(((1S,2S)-2-hydroxycyclohexyl)amino)-1-(isopropylamino)-2,6-naphthyridine-3-carbonitrile] | 14
6 | CC(C)Nc1nc(C#N)cc2cnc(N[C@@H]3CCCC[C@H]3O)cc12 [Compound 159, 7-(((1R,2R)-2-hydroxycyclohexyl)amino)-1-(isopropylamino)-2,6-naphthyridine-3-carbonitrile] | 22
7 | CC(C)Nc1nc(C#N)cc2cnc(N[C@H]3CCCC[C@H]3O)cc12 [Compound 160, 7-(((1S,2R)-2-hydroxycyclohexyl)amino)-1-(isopropylamino)-2,6-naphthyridine-3-carbonitrile] | 26
8 | CC(C)Nc1nc(C#N)cc2cnc(N[C@@H]3CCCC[C@@H]3O)cc12 [Compound 161, 7-(((1R,2S)-2-hydroxycyclohexyl)amino)-1-(isopropylamino)-2,6-naphthyridine-3-carbonitrile] | 14
9 | CC(C)Nc1nc(C#N)cc2cnc(N[C@@H]3CCC[C@H]3N)cc12 [Compound 165, 7-(((1R,2R)-2-aminocyclopentyl)amino)-1-(isopropylamino)-2,6-naphthyridine-3-carbonitrile] | 47
10 | N#Cc1cc2cnc(N[C@H]3C[C@@H](O)C3)cc2c(N[C@@H]2CCOC2)n1 [Compound 176, 7-(((1s,3S)-3-hydroxycyclobutyl)amino)-1-(((R)-tetrahydrofuran-3-yl)amino)-2,6-naphthyridine-3-carbonitrile] | 3
11 | N#Cc1cc2cnc(N[C@H]3CCCNC3)cc2c(NC2COC2)n1 [Compound 182, (S)-1-(oxetan-3-ylamino)-7-(piperidin-3-ylamino)-2,6-naphthyridine-3-carbonitrile] | 15
12 | CCC(CC)c1nc(C#N)cc2cnc(N[C@H]3CCCNC3)cc12 [Compound 188, (S)-1-(pentan-3-yl)-7-(piperidin-3-ylamino)-2,6-naphthyridine-3-carbonitrile] | 10
13 | CSc1nc(C#N)cc2cnc(N[C@H]3CCCNC3)cc12 [Compound 192, (S)-1-(methylthio)-7-(piperidin-3-ylamino)-2,6-naphthyridine-3-carbonitrile] | 11
14 | CCOc1nc(C#N)cc2cnc(N[C@H]3CCCNC3)cc12 [Compound 198, (S)-1-ethoxy-7-(piperidin-3-ylamino)-2,6-naphthyridine-3-carbonitrile] | 12
15 | N#Cc1cc2cnc(N[C@H]3CCCNC3)cc2c(OC2CCC2)n1 [Compound 199, (S)-1-cyclobutoxy-7-(piperidin-3-ylamino)-2,6-naphthyridine-3-carbonitrile] | 4
16 | CC(C)(C)Nc1nc(C(F)F)cc2cnc(N[C@H]3C[C@@H](N)C3)cc12 [Compound 203, N^7-((1s,3s)-3-aminocyclobutyl)-N^1-(tert-butyl)-3-(difluoromethyl)-2,6-naphthyridine-1,7-diamine] | 1

Row | Structure (SMILES) | IC50 [nM]
17 | CC(C)Nc1nc(C#N)cc2cnc(NC3CCN(CC(=O)N(C)C)CC3)nc12 [Compound C3, 2-(4-((6-cyano-8-(isopropylamino)pyrido[3,4-d]pyrimidin-2-yl)amino)piperidin-1-yl)-N,N-dimethylacetamide] | 27
18 | CC(C)Nc1nc(C#N)cc2cnc(N[C@H]3C[C@](C)(O)C3)nc12 [Compound C11, 2-(((1r,3r)-3-hydroxy-3-methylcyclobutyl)amino)-8-(isopropylamino)pyrido[3,4-d]pyrimidine-6-carbonitrile] | 1
19 | CO[C@H]1C[C@H](Nc2ncc3cc(C#N)nc(NC(C)C)c3n2)C1 [Compound C12, 8-(isopropylamino)-2-(((1r,3r)-3-methoxycyclobutyl)amino)pyrido[3,4-d]pyrimidine-6-carbonitrile] | 2
20 | CC(C)Nc1nc(C#N)cc2cnc(N[C@H]3C[C@@H](CN)C3)nc12 [Compound C17, 2-(((1s,3s)-3-(aminomethyl)cyclobutyl)amino)-8-(isopropylamino)pyrido[3,4-d]pyrimidine-6-carbonitrile] | 2
21 | CC(C)Nc1nc(C#N)cc2cnc(N[C@H]3C[C@H](N4CCOCC4)C3)nc12 [Compound C21, 8-(isopropylamino)-2-(((1r,3r)-3-morpholinocyclobutyl)amino)pyrido[3,4-d]pyrimidine-6-carbonitrile] | 4
22 | CC(=O)N1CCN([C@H]2C[C@H](Nc3ncc4cc(C#N)nc(NC(C)C)c4n3)C2)CC1 [Compound C32, 2-(((1r,3r)-3-(4-acetylpiperazin-1-yl)cyclobutyl)amino)-8-(isopropylamino)pyrido[3,4-d]pyrimidine-6-carbonitrile] | 4
23 | CC(C)(C)Nc1nc(C#N)cc2cnc(N[C@H]3C[C@](C)(N)C3)nc12 [Compound C34, 2-(((1r,3r)-3-amino-3-methylcyclobutyl)amino)-8-(tert-butylamino)pyrido[3,4-d]pyrimidine-6-carbonitrile] | 1
24 | CC(C)Nc1nc(C#N)cc2cnc(N[C@H]3C[C@@]4(CCN4)C3)nc12 [Compound C37, 2-(((4r,6s)-1-azaspiro[3.3]heptan-6-yl)amino)-8-(isopropylamino)pyrido[3,4-d]pyrimidine-6-carbonitrile] | 2
25 | CCNc1nc(C#N)cc2cnc(N[C@H]3C[C@](C)(N)C3)nc12 [Compound C38, 2-(((1r,3r)-3-amino-3-methylcyclobutyl)amino)-8-(ethylamino)pyrido[3,4-d]pyrimidine-6-carbonitrile] | 1
26 | N#Cc1cc2cnc(N[C@H]3C[C@H](N)C3)nc2c(N[C@@H]2CCCOC2)n1 [Compound C39, 2-(((1r,3R)-3-aminocyclobutyl)amino)-8-(((R)-tetrahydro-2H-pyran-3-yl)amino)pyrido[3,4-d]pyrimidine-6-carbonitrile] | 1
27 | CN(C)[C@H]1CC[C@H](Nc2ncc3cc(C#N)nc(N[C@@H]4CCOC4)c3n2)CC1 [Compound C40, 2-(((1r,4R)-4-(dimethylamino)cyclohexyl)amino)-8-(((R)-tetrahydrofuran-3-yl)amino)pyrido[3,4-d]pyrimidine-6-carbonitrile] | 5
28 | COC[C@H](C)Nc1nc(C#N)cc2cnc(N[C@H]3C[C@H](N)C3)nc12 [Compound C42, 2-(((1r,3S)-3-aminocyclobutyl)amino)-8-(((S)-1-methoxypropan-2-yl)amino)pyrido[3,4-d]pyrimidine-6-carbonitrile] | 2
29 | CCNc1nc(C#N)cc2cnc(N[C@H]3C[C@H](NC)C3)nc12 [Compound C43, 8-(ethylamino)-2-(((1r,3r)-3-(methylamino)cyclobutyl)amino)pyrido[3,4-d]pyrimidine-6-carbonitrile] | 1
30 | CC(C)Nc1nc(C#N)cc2cnc(N[C@@H]3CCCNC3)nc12 [Compound C44, (R)-8-(isopropylamino)-2-(piperidin-3-ylamino)pyrido[3,4-d]pyrimidine-6-carbonitrile] | 20
31 | CCOc1nc(C#N)cc2cnc(N[C@H]3C[C@H](N)C3)nc12 [Compound C47, 2-(((1r,3r)-3-aminocyclobutyl)amino)-8-ethoxypyrido[3,4-d]pyrimidine-6-carbonitrile] | 24
32 | CC(C)Oc1nc(C#N)cc2cnc(N[C@H]3CCCNC3)nc12 [Compound C49, (S)-8-isopropoxy-2-(piperidin-3-ylamino)pyrido[3,4-d]pyrimidine-6-carbonitrile] | 20
